Values after ≈ are worked out from the molar mass of the structure shown.
Test system: Vaccinia virus
Assay: Antiviral activity against Vaccinia virus infected in human skin fibroblasts primed with interferon and superinduced with cyclohexamide and actinomycin D assessed as inhibition of virus-induced cytopathogenicity
Format: functional
Conditions: Orthopoxvirus vaccinia

Compared with `NC(=O)COc1cn([C@H]2C[C@H](O)[C@@H](CO)O2)c(=O)[nH]c1=O`, `C=CCOc1cn([C@H]2C[C@H](O)[C@@H](CO)O2)c(=O)[nH]c1=O` is 2.7-fold higher in MIC: 130 µM (≈ 39.2 µg/mL) for the first, 350 µM (≈ 99.5 µg/mL) for the second.

`O=c1[nH]c(=O)n([C@@H]2O[C@H](CO)[C@@H](O)[C@H]2O)cc1OCc1ccccc1` and `Cc1ccc(COc2cn([C@@H]3O[C@H](CO)[C@@H](O)[C@H]3O)c(=O)[nH]c2=O)cc1` cannot be ordered by MIC: > 600 µM for the first, > 600 µM for the second.

`C=CCOc1cn([C@@H]2O[C@H](CO)[C@@H](O)[C@H]2O)c(=O)[nH]c1=O` and `NC(=O)COc1cn([C@@H]2O[C@H](CO)[C@@H](O)[C@H]2O)c(=O)[nH]c1=O` cannot be ordered by MIC: > 600 µM for the first, > 600 µM for the second.

Compared with `Nc1ncnc2c1ncn2[C@@H]1O[C@H](CO)[C@@H](O)[C@@H]1O` [VIDARABINE], `O=c1[nH]c(=O)n([C@@H]2O[C@H](CO)[C@@H](O)[C@H]2O)cc1OCc1ccc([N+](=O)[O-])cc1` is higher in MIC: 26 µM (≈ 6.95 µg/mL) for the first, > 600 µM for the second.

Going from `O=c1[nH]c(=O)n([C@H]2C[C@H](O)[C@@H](CO)O2)cc1I` [IDOXURIDINE] to `O=c1[nH]c(=O)n([C@H]2C[C@H](O)[C@@H](CO)O2)cc1O`, the MIC rises from 1.4 µM (≈ 0.496 µg/mL) to 40 µM (≈ 9.77 µg/mL) (29-fold).

`O=c1[nH]c(=O)n([C@H]2C[C@H](O)[C@@H](CO)O2)cc1OCc1ccc([N+](=O)[O-])cc1` and `O=c1[nH]c(=O)n([C@H]2C[C@H](O)[C@@H](CO)O2)cc1OCc1ccccc1` cannot be ordered by MIC: > 520 µM for the first, > 600 µM for the second.

`C#CCOc1cn([C@H]2C[C@H](O)[C@@H](CO)O2)c(=O)[nH]c1=O` showed an MIC of 140 µM (≈ 39.5 µg/mL).

— ChEMBL document CHEMBL3244322, “5-O-Alkylated derivatives of 5-hydroxy-2'-deoxyuridine as potential antiviral agents. Anti-herpes activity of 5-propynyloxy-2'-deoxyuridine” (J Med Chem, 1978)
